Data published in patent US11679107B2 (Eisai R&D Management Co., Ltd., priority 2018, dated 2023).
Read-outs that look alike come from different tables or passages of the source.

Experiments:
[1] = test system: Ad2 variant pre-mRNAs spliced in HeLa S3 nuclear extracts; test: In vitro splicing assay (IVS), RT-qPCR of spliced product; assay type: biochemical; conditions: geometric mean
Outline: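 Ad2 variant pre-mRNA (2 ng) with FTZΔi control RNA in HeLa S3 nuclear extract (8 μg) was pre-incubated with compound or DMSO for 15 min at 30 °C. Splicing ran 90 min at 30 °C after adding 0.5 mM ATP, creatine phosphate and MgCl2. Spliced product was quantified by TaqMan RT-qPCR, normalized to DMSO, and curve-fitted.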

[2] = test system: NCI-H1568 cells (high MCL1); test: Cell proliferation and viability, CellTiter-Glo, 72 hours; assay type: cell-based; conditions: for GI50: geometric mean; for CTGlo-ATS Mean MinResponse % 72 h NCIH1568.1: −100% cidal, 0% static, 100% maximal growth
Outline: (§1)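 Cells grown in RPMI-1640 with 10% FBS (Panc 05.04 with added insulin, 15% FBS total) were exposed to an 11-point half-log dilution, typically 10 μM–100 pM, at 0.1% DMSO for 72 h at 37 °C. ATP content was read by CellTiter-Glo luminescence. Percent inhibition was set against a time-zero plate and DMSO vehicle wells, on a −100% (cidal) to 100% (uninhibited growth) scale.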

[3] = test system: Panc 05.04 cells (SF3b K700E mutant); test: as above; assay type: cell-based; conditions: for CTGlo-ATS Mean MinResponse % 72 h PANC0504.1: −100% cidal, 0% static, 100% maximal growth; for GI50: geometric mean
Outline: as §1

[4] = biological target: T1, SF3b complexes (Homo sapiens, UniProt O75533+Q7RTV0); test: Scintillation proximity assay (SPA) with [3H]-labelled pladienolide probe; assay type: binding; conditions: SF3B1 (WT); geometric mean; read-out: SPA-ATS GMean IC50 (nM) SF3B1 (WT)
T1 construct: endogenous in cells; host or cells: Nuclear extracts; A HeLa S3 extract preparation is described for the in vitro splicing assay
Outline: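 SF3b complexes captured from nuclear extracts on anti-SF3B1 antibody SPA beads; test compounds pre-incubated 30 min before 2.5 nM [3H]-pladienolide probe added, then 30 min incubation. Bound probe read by scintillation; values from non-linear regression of concentration–response curves.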

[5] = Ad2.1 pre-mRNA substrate, read-out: qPCR-IVS-ATS GMean IC50 (nM) Ad2.1
[6] = Ad2.2 pre-mRNA substrate, read-out: qPCR-IVS-ATS GMean IC50 (nM) Ad2.2
[7] = NCI-H1568, 72 h, read-out: CTGlo-ATS GMean GI50 (nM) 72 h NCIH1568.1, NCIH1568.1 cells, 72 h
[8] = Panc 05.04, 72 h, read-out: CTGlo-ATS GMean GI50 (nM) 72 h PANC0504.1, PANC0504.1 cells, 72 h
[9] = NCI-H1568, read-out: CTGlo-ATS GMean GI50 (nM) 72 h NCIH1568.1, NCIH1568.1 cells, 72 h
[10] = Panc 05.04, read-out: CTGlo-ATS GMean GI50 (nM) 72 h PANC0504.1, PANC0504.1 cells, 72 h

Row | Structure (SMILES) | IC50 [1, 5] [nM] | IC50 [1, 6] [nM] | GI50 [2, 7] [nM] | CTGlo-ATS Mean MinResponse % 72 h NCIH1568.1 ([2]; NCIH1568.1 cells, 72 h) [%] | CTGlo-ATS Mean MinResponse % 72 h PANC0504.1 ([3]; PANC0504.1 cells, 72 h) [%] | GI50 [3, 8] [nM] | IC50 [4] [nM] | GI50 [2, 9] [nM] | GI50 [3, 10] [nM]
1 | C/C(=C\c1cc(F)cc(N2CCC[C@H]2C)c1)[C@H]1OC(=O)C[C@H](O)CC[C@H](C)[C@@H](OC(=O)N2CCN(C)CC2)/C=C/[C@@H]1C [Compound 41] | 221 | 39.2 | 21.4 | −77.375 | −82.009 | 15.8 | 8.26 | – | –
2 | C/C(=C\c1cc(F)cc(N2CCCC2=O)c1)[C@H]1OC(=O)C[C@H](O)CC[C@H](C)[C@@H](OC(=O)N2CCN(C)CC2)/C=C/[C@@H]1C [Compound 42] | 330 | 12.6 | – | −63.030 | −86.319 | – | 2.92 | 6.13 | 4.76
3 | C/C(=C\c1cc(F)cc(N2CCC[C@@H]2C)c1)[C@H]1OC(=O)C[C@H](O)CC[C@H](C)[C@@H](OC(=O)N2CCN(C)CC2)/C=C/[C@@H]1C [Compound 43] | > 25000 | 139 | 89.1 | −36.254 | −88.777 | 57.5 | 12 | – | –
4 | C/C(=C\c1cc(F)cc(N2CCC[C@@H]2CO)c1)[C@H]1OC(=O)C[C@H](O)CC[C@H](C)[C@@H](OC(=O)N2CCN(C)CC2)/C=C/[C@@H]1C [Compound 44] | 12800 | 86.6 | 67.2 | −14.871 | −92.314 | 41.5 | 8.26 | – | –
5 | CN[C@@H]1CCN(c2cc(F)cc(/C=C(\C)[C@H]3OC(=O)C[C@H](O)CC[C@H](C)[C@@H](OC(=O)N4CCN(C)CC4)/C=C/[C@@H]3C)c2)C1 [Compound 45] | 36.3 | 18.3 | – | −98.435 | −92.006 | – | 15.9 | 18.9 | 35.7
6 | C/C(=C\c1cncc(Cl)c1)[C@H]1OC(=O)C[C@H](O)CC[C@H](C)[C@@H](OC(=O)N2CCN(C)CC2)/C=C/[C@@H]1C [Compound 46] | > 25000 | 114 | – | −10.684 | 0.031 | – | 12.2 | 78.4 | 40
7 | C/C(=C\c1cc(Cl)cc(Cl)c1)[C@H]1OC(=O)C[C@H](O)CC[C@H](C)[C@@H](OC(=O)N2CCN(C)CC2)/C=C/[C@@H]1C [Compound 48] | > 25000 | 188 | – | −38.837 | −89.415 | – | 11.3 | 121 | 95.2
8 | C/C(=C\c1cccc(N2CCCS2(=O)=O)c1)[C@H]1OC(=O)C[C@H](O)CC[C@H](C)[C@@H](OC(=O)N2CCN(C)CC2)/C=C/[C@@H]1C [Compound 49] | 16300 | 28.3 | 11.7 | −35.275 | −93.022 | 9.02 | 3.04 | – | –
9 | C/C(=C\c1ccc2c(C)nn(C)c2c1)[C@H]1OC(=O)C[C@H](O)CC[C@H](C)[C@@H](OC(=O)N2CCN(C)CC2)/C=C/[C@@H]1C [Compound 50] | 17900 | 60.2 | – | −65.255 | −82.642 | – | 1.46 | 43.6 | 28.3
10 | C/C(=C\c1cc(F)cc(N2CCS(=O)(=O)CC2)c1)[C@H]1OC(=O)C[C@H](O)CC[C@H](C)[C@@H](OC(=O)N(C)C)/C=C/[C@@H]1C [Compound 51] | > 25000 | 88.1 | – | −31.962 | −78.388 | – | 19.7 | 112 | 80.9
11 | C/C(=C\c1cc(F)cc(N2CCS(=O)(=O)CC2)c1)[C@H]1OC(=O)C[C@H](O)CC[C@H](C)[C@@H](OC(=O)N2CCN(C)CC2)/C=C/[C@@H]1C [Compound 52] | 39.6 | 45.4 | 23.3 | −63.079 | −76.609 | 13.6 | 8.3 | – | –
12 | C/C(=C\c1cc(F)cc(N2CCN(CCO)CC2)c1)[C@H]1OC(=O)C[C@H](O)CC[C@H](C)[C@@H](OC(=O)N2CCOCC2)/C=C/[C@@H]1C [Compound 53] | 1910 | 30.5 | – | −59.250 | −92.947 | – | 14.1 | 81.8 | 81.1
13 | C/C(=C\c1cc(F)cc(N2CCN(CCO)CC2)c1)[C@H]1OC(=O)C[C@H](O)CC[C@H](C)[C@@H](OC(=O)N(C)C2CCN(C)CC2)/C=C/[C@@H]1C [Compound 54] | 12.4 | 15.8 | – | −96.584 | −94.487 | – | 4.29 | 7.81 | 8.66
14 | C/C(=C\c1ccc2cnn(C)c2c1)[C@H]1OC(=O)C[C@H](O)CC[C@H](C)[C@@H](OC(=O)N2CCN(C)CC2)/C=C/[C@@H]1C [Compound 55] | 19900 | 45.3 | – | −57.557 | −85.478 | – | 2.37 | 21.2 | 17.2
15 | C/C(=C\c1cc(F)cc(N2CCOCC2=O)c1)[C@H]1OC(=O)C[C@H](O)CC[C@H](C)[C@@H](OC(=O)N2CCN(C)CC2)/C=C/[C@@H]1C [Compound 56] | 16.1 | 15.3 | – | −67.625 | −90.320 | – | 1.94 | 4.42 | 1.85
16 | C/C(=C\c1ccc(S(=O)(=O)NC2CCCC2)cc1F)[C@H]1OC(=O)C[C@H](O)CC[C@H](C)[C@@H](OC(=O)N2CCN(C)CC2)/C=C/[C@@H]1C [Compound 57] | > 25000 | 228 | – | −47.783 | −71.380 | – | 9.16 | 41.3 | 49.7
17 | C/C(=C\c1cc(F)cc(N2CCN(S(C)(=O)=O)CC2)c1)[C@H]1OC(=O)C[C@H](O)CC[C@H](C)[C@@H](OC(=O)N2CCN(C)CC2)/C=C/[C@@H]1C [Compound 58] | 30.1 | 22 | – | −70.067 | −91.132 | – | 6.54 | 7 | 6.97
